Source: ChEMBL document CHEMBL1201862, “PubChem BioAssay data set” (2004)
Activity calls are given as the source filed them.

Columns and labels:
[1] = target: Peroxisome proliferator-activated receptor gamma/Nuclear receptor coactivator 1 (Homo sapiens, UniProt P37231); experiment: (§1) TR-FRET dose response biochemical High Throughput Screening assay for agonists of the steroid receptor coactivator 1 (SRC-1) recruitment by the peroxisome proliferator-activated receptor gamma (PPAR gamma): non-selective agonists. [Related pubchem assays (depositor defined):AID1300, AID1808, AID504735, AID631]; format: protein assay
[2] = target: fMet-Leu-Phe receptor (Homo sapiens, UniProt P21462); experiment: FPR ligands, dose response (AID 519); format: functional
[3] = target: Photoreceptor-specific nuclear receptor (Homo sapiens, UniProt Q9Y5X4); format: functional;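 note: potency for compounds that break the NR2E3 corepressor complex and count as activators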
[4] = target: Peroxisome proliferator-activated receptor gamma/Nuclear receptor corepressor 2 (Homo sapiens, UniProt P37231+Q9Y618); format: functional
[5] = target: Peroxisome proliferator-activated receptor gamma/Nuclear receptor coactivator 3 (Homo sapiens, UniProt P37231); experiment: as §1, with “3 (SRC-3)” for “1 (SRC-1)”, “assays: 1301 (Confirmation screen.), 1048 (Primary screen.)]” for “assays (depositor defined):AID1300, AID1808, AID504735, AID631]”; format: functional
[6] = target: Peroxisome proliferator-activated receptor gamma/Nuclear receptor coactivator 2 (Homo sapiens, UniProt P37231); experiment: TR-FRET dose response biochemical High Throughput Screening assay for agonists of the steroid receptor coactivator 2 (SRC-2) recruitment by the peroxisome proliferator-activated receptor gamma (PPAR gamma): non-selective agonists. [Related pubchem assays: 1297, 1032 ]; format: functional
[7] = inhibitors of intracellular T. cruzi replication, confirmation, NIH3T3 host cells, beta-gal luminescence (AID 2044); format: functional, cell-based;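 note: intracellular parasites grown in NIH/3T3 mouse fibroblasts as host cells; luminescent beta-galactosidase reporter signal from transgenic T. cruzi replicating inside host cells; inhibitors lower the luminescence signal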
[8] = target: G-protein coupled receptor 35 (Homo sapiens, UniProt Q9HC97); experiment: GPR35 antagonists blocking zaprinast-driven arrestin recruitment, primary screen, imaging, U2OS, beta-arrestin-GFP, zaprinast agonist (AID 2058); format: functional;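 note: antagonist potency meaning inhibition of agonist-induced arrestin redistribution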
[9] = cytotoxicity toward NIH3T3 fibroblasts, dose response, counter-screen, cell-based, ATP luminescence, mouse fibroblasts (AID 2010); format: functional;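 note: cells exposed to compound for about 90 hours before reading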
[10] = growth suppression of beta-catenin-knockout colon cells, dose response, cell-based, HCT116, human colon tumor (AID 1045); format: functional;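 note: HCT116 colon tumor cells with beta catenin knocked out; cells exposed to compound for 60 hours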
[11] = growth suppression of PTEN-null colon cells, dose response, cell-based, HCT116 PTEN knockout (AID 1047); format: functional;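 note: HCT116 colon tumor cells with PTEN knocked out; cells exposed to compound for 60 hours before readout; potency for loss of cell viability measured by luminescence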
[12] = tested on: HeLa; experiment: HeLa cell cytotoxicity, dose response, cytotoxicity control, 24 h, cherry-picked samples (AID 504726); format: functional, cell-based; details: Homo sapiens;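 note: potency for cytotoxicity as loss of luminescence signal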
[13] = cells; format: functional, cell-based
[14] = Luminescence Cell-Based Dose Response HTS to Identify Inhibitors of 5'UTR Stem-Loop Driven Prion Protein mRNA Translation in H4 Neuroglioblastoma Cells. [Related pubchem assays: 1827 (Project Summary), 1813 (Primary HTS)]; format: functional
[15] = inhibitors of SNCA 5'UTR-driven reporter translation, confirmation, H4 neuroglioma cells, luminescence (AID 1988); format: functional, cell-based
[16] = tested on: J774.A1; experiment: Confirmation of image-based Screening Assay for Inhibitors of Phagocytosis. [Related pubchem assays (depositor defined):AID1029, AID1643]; format: functional, cell-based; details: Mus musculus
[17] = luciferase reporter signal reduction – luminescence, H4-C neuroglioblastoma cells, dose response (AID 2458); format: functional, cell-based;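 note: H4 neuroglioblastoma cells stably carrying a luciferase reporter gene fusion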
[18] = inhibitors of firefly luciferase expression or activity, dose response, H4 neuroglioma cells, luminescence (AID 1990); format: functional, cell-based
[19] = inhibitors of SNCA 5'UTR-driven translation, confirmation, luminescence, H4 neuroglioblastoma cells, dose confirmation (AID 2454); format: functional, cell-based;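 note: H4 neuroglioblastoma cells carrying an alpha-synuclein 5'UTR luciferase reporter; potency for inhibition of the luciferase signal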
[20] = target: Intestinal-type alkaline phosphatase (Homo sapiens, UniProt P09923); experiment: Dose Response confirmation of uHTS hits from a small molecule inhibitors of human intestinal alkaline phosphatase via a luminescent assay. [Related pubchem assays (depositor defined):AID2544, AID2574]; format: functional
[21] = tested on: Vero; experiment: Vero cell cytotoxicity, cytotoxicity control for flavivirus capping enzyme inhibitors (AID 588742); format: functional; details: Chlorocebus sabaeus
[22] = target: Beta-galactosidase (Escherichia coli, UniProt Q8VNN2); experiment: beta-galactosidase enzyme inhibitors and activators, dose response, artefact control for CCR6 antagonist project, biochemical, E. coli enzyme, set 3 (AID 504712); format: functional
Chain of Beta-galactosidase (Q8VNN2 whole entry): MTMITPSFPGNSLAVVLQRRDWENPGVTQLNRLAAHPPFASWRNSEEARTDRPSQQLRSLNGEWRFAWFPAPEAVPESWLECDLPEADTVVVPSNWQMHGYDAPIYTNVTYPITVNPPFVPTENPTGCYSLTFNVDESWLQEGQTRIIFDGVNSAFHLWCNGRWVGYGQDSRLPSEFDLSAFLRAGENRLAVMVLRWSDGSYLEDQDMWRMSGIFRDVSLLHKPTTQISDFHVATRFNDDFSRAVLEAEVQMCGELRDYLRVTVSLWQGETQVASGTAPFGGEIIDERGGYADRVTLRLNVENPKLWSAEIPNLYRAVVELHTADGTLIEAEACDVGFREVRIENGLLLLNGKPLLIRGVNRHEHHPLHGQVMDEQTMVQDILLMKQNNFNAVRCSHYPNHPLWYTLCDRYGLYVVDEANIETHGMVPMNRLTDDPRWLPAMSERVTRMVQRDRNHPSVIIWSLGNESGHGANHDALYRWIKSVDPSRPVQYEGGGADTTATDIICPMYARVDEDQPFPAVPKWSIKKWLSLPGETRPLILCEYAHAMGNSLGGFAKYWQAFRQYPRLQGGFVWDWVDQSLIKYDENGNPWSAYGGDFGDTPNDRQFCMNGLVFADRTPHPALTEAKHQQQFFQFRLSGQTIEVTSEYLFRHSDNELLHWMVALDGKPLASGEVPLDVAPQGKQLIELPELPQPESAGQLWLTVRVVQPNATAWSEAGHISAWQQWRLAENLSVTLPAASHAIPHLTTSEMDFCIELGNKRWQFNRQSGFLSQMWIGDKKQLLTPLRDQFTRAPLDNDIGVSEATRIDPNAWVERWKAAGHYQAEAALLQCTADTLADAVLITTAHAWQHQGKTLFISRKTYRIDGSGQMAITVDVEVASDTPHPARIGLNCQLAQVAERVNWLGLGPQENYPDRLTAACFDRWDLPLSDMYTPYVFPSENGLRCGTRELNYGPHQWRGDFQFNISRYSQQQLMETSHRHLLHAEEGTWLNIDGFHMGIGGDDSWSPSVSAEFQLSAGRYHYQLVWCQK

Chain of fMet-Leu-Phe receptor (P21462 whole entry): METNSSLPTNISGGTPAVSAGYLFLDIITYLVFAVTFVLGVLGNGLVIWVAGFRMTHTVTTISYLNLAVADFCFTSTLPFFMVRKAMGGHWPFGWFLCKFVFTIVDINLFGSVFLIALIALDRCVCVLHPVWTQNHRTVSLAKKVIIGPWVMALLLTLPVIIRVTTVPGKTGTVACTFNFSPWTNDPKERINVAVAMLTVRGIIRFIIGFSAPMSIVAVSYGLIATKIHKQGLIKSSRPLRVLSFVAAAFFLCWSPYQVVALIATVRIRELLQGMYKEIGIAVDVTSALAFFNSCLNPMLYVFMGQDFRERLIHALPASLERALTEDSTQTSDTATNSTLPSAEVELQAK
Chain of Peroxisome proliferator-activated receptor gamma/Nuclear receptor coactivator 2 (P37231 whole entry): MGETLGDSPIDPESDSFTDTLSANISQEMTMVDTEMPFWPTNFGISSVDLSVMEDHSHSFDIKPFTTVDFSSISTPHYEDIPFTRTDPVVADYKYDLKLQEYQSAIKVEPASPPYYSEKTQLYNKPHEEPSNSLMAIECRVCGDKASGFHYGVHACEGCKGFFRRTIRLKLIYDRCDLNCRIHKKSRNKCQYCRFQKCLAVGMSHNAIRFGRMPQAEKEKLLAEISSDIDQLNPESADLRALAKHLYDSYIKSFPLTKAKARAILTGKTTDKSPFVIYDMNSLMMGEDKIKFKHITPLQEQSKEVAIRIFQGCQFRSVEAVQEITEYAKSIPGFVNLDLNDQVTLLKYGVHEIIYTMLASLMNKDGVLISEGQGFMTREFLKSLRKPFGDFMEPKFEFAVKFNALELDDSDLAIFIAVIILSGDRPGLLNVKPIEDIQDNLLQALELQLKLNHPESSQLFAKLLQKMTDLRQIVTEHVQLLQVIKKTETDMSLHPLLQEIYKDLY
Chain of Peroxisome proliferator-activated receptor gamma/Nuclear receptor coactivator 2 (Q15596 whole entry, further chain): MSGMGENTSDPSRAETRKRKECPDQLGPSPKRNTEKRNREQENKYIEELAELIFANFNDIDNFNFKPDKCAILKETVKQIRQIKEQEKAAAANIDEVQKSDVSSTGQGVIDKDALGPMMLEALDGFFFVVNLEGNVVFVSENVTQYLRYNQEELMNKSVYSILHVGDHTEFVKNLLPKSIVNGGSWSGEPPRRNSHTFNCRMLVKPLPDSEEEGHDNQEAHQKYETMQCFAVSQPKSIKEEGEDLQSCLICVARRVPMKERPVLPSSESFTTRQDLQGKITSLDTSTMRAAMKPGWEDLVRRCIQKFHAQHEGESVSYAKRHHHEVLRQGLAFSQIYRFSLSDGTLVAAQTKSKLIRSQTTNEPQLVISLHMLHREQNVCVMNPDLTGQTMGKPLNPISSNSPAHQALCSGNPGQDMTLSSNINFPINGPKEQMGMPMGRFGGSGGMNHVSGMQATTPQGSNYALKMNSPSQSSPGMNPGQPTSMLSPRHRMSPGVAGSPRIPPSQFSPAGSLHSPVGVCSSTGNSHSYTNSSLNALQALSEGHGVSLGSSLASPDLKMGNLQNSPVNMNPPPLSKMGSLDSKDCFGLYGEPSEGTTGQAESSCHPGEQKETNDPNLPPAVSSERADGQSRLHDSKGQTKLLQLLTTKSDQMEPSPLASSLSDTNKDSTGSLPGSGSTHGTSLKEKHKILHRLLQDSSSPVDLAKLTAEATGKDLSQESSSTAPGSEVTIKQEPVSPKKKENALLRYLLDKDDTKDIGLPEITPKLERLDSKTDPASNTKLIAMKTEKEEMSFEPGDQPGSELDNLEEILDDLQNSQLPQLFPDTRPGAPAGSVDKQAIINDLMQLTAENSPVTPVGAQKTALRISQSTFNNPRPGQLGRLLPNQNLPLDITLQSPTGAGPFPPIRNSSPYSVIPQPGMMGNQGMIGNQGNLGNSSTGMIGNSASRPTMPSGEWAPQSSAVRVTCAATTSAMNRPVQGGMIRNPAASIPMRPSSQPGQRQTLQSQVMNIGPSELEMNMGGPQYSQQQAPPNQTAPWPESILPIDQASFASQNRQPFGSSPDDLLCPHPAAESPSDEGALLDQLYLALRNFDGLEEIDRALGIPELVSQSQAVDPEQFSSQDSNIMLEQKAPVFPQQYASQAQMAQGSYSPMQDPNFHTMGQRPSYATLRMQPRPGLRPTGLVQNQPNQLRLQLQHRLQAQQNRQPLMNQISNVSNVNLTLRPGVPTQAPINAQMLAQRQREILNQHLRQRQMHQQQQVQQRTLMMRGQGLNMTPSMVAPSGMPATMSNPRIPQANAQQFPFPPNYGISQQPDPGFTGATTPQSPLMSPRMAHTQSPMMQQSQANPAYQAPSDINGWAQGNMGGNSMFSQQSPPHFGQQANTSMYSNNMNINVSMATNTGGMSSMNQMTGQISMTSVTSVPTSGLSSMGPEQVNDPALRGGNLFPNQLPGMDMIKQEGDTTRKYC
Chain of Intestinal-type alkaline phosphatase (P09923 whole entry): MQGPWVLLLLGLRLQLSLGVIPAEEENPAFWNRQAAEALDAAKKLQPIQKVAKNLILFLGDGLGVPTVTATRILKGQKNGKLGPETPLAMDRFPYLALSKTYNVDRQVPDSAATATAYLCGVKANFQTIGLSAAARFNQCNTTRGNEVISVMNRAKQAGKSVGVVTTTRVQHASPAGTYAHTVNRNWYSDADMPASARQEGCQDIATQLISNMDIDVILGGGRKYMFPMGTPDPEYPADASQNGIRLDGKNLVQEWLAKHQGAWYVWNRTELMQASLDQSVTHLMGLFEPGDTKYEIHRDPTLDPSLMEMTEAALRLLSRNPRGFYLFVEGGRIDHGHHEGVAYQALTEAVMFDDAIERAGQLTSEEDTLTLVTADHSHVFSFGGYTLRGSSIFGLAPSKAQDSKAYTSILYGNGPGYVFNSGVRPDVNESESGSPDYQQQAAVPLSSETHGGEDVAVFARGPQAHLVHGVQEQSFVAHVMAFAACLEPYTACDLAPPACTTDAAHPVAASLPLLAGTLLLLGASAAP
Chain of G-protein coupled receptor 35 (Q9HC97 whole entry): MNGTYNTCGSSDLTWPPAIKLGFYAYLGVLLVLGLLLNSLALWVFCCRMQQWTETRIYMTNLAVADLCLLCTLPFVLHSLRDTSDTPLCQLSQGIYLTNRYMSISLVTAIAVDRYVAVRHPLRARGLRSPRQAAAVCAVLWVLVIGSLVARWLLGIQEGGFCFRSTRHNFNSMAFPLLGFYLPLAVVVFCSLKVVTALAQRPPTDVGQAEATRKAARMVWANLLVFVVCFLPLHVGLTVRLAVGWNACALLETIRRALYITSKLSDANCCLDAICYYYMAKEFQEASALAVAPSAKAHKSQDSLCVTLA
Chain of Photoreceptor-specific nuclear receptor (Q9Y5X4 whole entry): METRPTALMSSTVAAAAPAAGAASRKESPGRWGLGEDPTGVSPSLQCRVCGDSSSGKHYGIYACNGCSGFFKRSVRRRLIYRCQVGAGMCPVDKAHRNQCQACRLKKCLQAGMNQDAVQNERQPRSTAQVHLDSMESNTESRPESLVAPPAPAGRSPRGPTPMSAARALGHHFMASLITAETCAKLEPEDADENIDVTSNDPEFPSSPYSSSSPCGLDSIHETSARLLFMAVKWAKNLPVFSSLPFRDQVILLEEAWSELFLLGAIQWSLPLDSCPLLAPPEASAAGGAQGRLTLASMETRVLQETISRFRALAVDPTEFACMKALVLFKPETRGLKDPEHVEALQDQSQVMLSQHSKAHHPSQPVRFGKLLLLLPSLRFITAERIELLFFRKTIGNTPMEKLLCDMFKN

COc1cccc2cc(C(=O)C3=C(O)C(=O)N(Cc4ccco4)C3c3cccnc3)oc12 (configuration not stated)
EC50 [1]: > 79.4 µM (inactive)
Ki [2]: > 66.7 µM (inactive)
IC50 [3]: > 39.8 µM (not active)
IC50 [4]: 2.79 µM (active)
EC50 [5]: > 79.4 µM (not active)
EC50 [6]: > 79.4 µM (not active)

CCOc1ccc(NC(=O)C(C)Oc2ccccc2C(=O)Nc2ccc(C)c(Cl)c2)cc1 (configuration not stated)
EC50 [7]: 2.06 µM (active)
IC50 [8]: 1.31 µM (active)
EC50 [9]: > 60 µM (not active)
EC50 [10]: 19.6 µM (active)
EC50 [11]: 17.9 µM (active)

CCN(CCCNC(=O)Cn1cc2c(n1)CCCC2)c1cccc(C)c1
AC50 [12]: > 350 µM (inactive)

COc1ccc(NS(=O)(=O)c2cc(C)ccc2NC(=O)c2cc(C)oc2C)cc1
EC50 [13]: 1.07 µM (active)
EC50 [14]: 0.173 µM (active)
EC50 [15]: < 0.1 µM (active)
IC50 [16]: 0.0632 µM (active)
EC50 [17]: 0.651 µM (active)
EC50 [18]: 7.02 µM (active)
EC50 [19]: 1.11 µM (active)

Cc1ccc(S(=O)(=O)N(CC(=O)Nc2ccc(C)cc2C)C(=O)N2CCN(C)CC2)cc1
IC50 [20]: > 100 µM (inactive)

O=C(N/N=C/c1cc([N+](=O)[O-])ccc1O)Nc1ccccc1
CC50 [21]: 35.1 µM (active)
IC50 [22]: > 66.6 µM (inactive)
